# Laboratory results as given in US8791132B2, “Compounds and methods for treatment of hypertension” (Medivation Technologies, Inc., priority 2011, dated 2014).
# “And” between values parts separate entries of the source, which are not always exact repeats. Identical values can stand only once. Like-named read-outs stand apart in the source and are kept apart here.
# What was measured:
# [1] = target: T1, human recombinant adrenergic α2A receptor (Homo sapiens, UniProt P08913); assay: Radioligand binding, adrenergic α2A ([3H]MK-912); conditions: for Percentage inhibition of ligand binding, Adrenergic α2A (0.1 μM) / Percentage inhibition of ligand binding, Adrenergic α2A: 0.1 µM
# T1 construct: expressed in transfected cells; host or cells: insect Sf9 cells
# T1 sequence (P08913 1-465): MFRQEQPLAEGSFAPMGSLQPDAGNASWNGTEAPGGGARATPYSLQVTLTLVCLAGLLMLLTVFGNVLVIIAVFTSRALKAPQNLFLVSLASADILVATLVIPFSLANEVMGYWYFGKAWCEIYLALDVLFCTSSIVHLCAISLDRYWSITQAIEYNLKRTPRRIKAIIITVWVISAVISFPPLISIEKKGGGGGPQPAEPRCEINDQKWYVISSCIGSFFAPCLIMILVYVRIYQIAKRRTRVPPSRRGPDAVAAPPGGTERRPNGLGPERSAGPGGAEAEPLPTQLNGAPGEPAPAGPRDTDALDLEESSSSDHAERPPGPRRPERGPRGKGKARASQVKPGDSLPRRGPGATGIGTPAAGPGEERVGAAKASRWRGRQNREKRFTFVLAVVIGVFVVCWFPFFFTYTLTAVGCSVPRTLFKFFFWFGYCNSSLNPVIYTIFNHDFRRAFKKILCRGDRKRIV
# Summary of the method: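 Sf9 membranes, 1 nM [3H]MK-912, 60 min, 25 °C, Tris-HCl pH 7.4/MgCl2/EDTA buffer. NSB: 10 μM WB-4101. Filtration, counting; % inhibition of specific binding.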
# [2] = target: T2, human recombinant adrenergic α2B receptor (Homo sapiens, UniProt P18089); assay: Radioligand binding, adrenergic α2B ([3H]Rauwolscine); conditions: for Percentage inhibition of ligand binding, Adrenergic α2B (0.03 μM) / Percentage inhibition of ligand binding, Adrenergic α2B: 0.03 µM
# T2 construct: expressed in transfected cells; host or cells: CHO-K1
# T2 sequence (P18089 1-450): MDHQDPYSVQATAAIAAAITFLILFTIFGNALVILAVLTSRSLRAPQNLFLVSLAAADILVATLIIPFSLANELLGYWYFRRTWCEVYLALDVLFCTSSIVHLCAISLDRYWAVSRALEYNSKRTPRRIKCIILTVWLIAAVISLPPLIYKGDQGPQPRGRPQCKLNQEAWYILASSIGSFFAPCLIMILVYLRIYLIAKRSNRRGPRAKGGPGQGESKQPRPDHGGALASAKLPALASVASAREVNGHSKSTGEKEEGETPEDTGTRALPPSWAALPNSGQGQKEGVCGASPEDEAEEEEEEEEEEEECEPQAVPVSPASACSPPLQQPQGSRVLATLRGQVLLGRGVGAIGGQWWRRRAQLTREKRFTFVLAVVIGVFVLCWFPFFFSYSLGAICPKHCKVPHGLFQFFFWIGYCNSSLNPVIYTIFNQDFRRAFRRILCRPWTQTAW
# Summary of the method: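 Assay used CHO-K1-expressed human α2B receptor in Tris-HCl pH 7.4 buffer with MgCl2, EDTA and BSA; 60 min incubation at 25 °C.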
# [3] = target: T3, rat adrenergic α1B receptor (Rattus norvegicus, UniProt P15823); assay: Radioligand binding, adrenergic α1B ([3H]Prazosin); conditions: for Percentage inhibition of ligand binding, Adrenergic α1B (0.1 μM) / Percentage inhibition of ligand binding, Adrenergic α1B: 0.1 µM
# T3 construct: rat adrenergic α1B receptor obtained from Wistar Rat liver; from tissue; host or cells: Wistar rat liver
# T3 sequence (P15823 1-515): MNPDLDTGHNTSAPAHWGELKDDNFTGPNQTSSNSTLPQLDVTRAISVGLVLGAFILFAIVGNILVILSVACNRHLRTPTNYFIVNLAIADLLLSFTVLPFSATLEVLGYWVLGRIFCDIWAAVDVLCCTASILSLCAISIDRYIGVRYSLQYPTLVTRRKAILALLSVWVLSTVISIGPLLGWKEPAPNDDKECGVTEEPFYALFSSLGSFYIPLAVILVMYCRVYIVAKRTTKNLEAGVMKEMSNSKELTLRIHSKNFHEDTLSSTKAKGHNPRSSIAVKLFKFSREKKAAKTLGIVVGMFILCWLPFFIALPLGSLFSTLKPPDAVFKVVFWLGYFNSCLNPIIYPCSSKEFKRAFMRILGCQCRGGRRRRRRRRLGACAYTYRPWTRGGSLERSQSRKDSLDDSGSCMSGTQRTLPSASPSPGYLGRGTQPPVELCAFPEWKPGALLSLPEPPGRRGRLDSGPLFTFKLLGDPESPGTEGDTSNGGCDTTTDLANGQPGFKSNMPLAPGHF
# Summary of the method: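 Rat α1B receptor from Wistar rat liver was incubated with 0.25 nM [3H]prazosin for 60 min at 25 °C in 50 mM Tris-HCl, pH 7.4, 0.5 mM EDTA. Non-specific binding was defined with 10 μM phentolamine. Bound radioligand was measured by filtration and counting, reported as percent inhibition of specific binding.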
# [4] = compound at 0.1 μM, [3H]MK-912, repeat datapoints each shown
# [5] = compound at 0.03 μM, [3H]Rauwolscine, repeat datapoints each shown
# [6] = compound at 0.1 μM, [3H]Prazosin, repeat datapoints each shown
# [7] = read-out: Percentage inhibition of ligand binding, Adrenergic α2A (0.1 μM), compound at 0.1 μM, [3H]MK-912, repeat datapoints each shown
# [8] = read-out: Percentage inhibition of ligand binding, Adrenergic α2B (0.03 μM), compound at 0.03 μM, [3H]Rauwolscine, repeat datapoints each shown
# [9] = read-out: Percentage inhibition of ligand binding, Adrenergic α1B (0.1 μM), compound at 0.1 μM, [3H]Prazosin, repeat datapoints each shown
# [10] = compound at 0.1 μM, [3H]MK-912, repeat assays, each datapoint shown
# [11] = compound at 0.03 μM, [3H]Rauwolscine, repeat assays, each datapoint shown
# [12] = compound at 0.1 μM, [3H]Prazosin, repeat assays, each datapoint shown
structure (smiles),measurement,setting,value
"Cc1ccc2c(c1)c1c(n2CC(C)(O)c2cccnc2)CCN(C)C1C (single isomer, unassigned) [II-152b]","Percentage inhibition of ligand binding, Adrenergic α2A (0.1 μM)",[1]; [4],6%
same,"Percentage inhibition of ligand binding, Adrenergic α2B (0.03 μM)",[2]; [5],61%
same,"Percentage inhibition of ligand binding, Adrenergic α1B (0.1 μM)",[3]; [6],2%
Cc1ccc2c(c1)c1c(n2CC(C)(O)c2cnccc2C(=O)O)CCN(C)C1 (centres unmarked) [compound 179],inhibition at 0.1 µM,[1]; [7],6%
same,inhibition at 0.03 µM,[2]; [8],8%
same,inhibition at 0.1 µM,[3]; [9],6%
"Cc1ccc2c(c1)c1c(n2CC(C)(N)c2cccnc2)CCN(C)C1 (single isomer, unassigned) [149a, 1-(2,8-dimethyl-3,4-dihydro-1H-pyrido[4,3-b]indol-5(2H)-yl)-2-(pyridin-3-yl)propan-2-amine]","Percentage inhibition of ligand binding, Adrenergic α2A (0.1 μM)",[1]; [4],−4%
same,inhibition at 0.03 µM,[2]; [8],16%
same,inhibition at 0.1 µM,[3]; [9],12%
"CC(O)(Cn1c2c(c3cc(Cl)cnc31)C1CCCN1CC2)c1cccnc1 (single isomer, unassigned) [IV-210a]","Percentage inhibition of ligand binding, Adrenergic α2A (0.1 μM)",[1]; [4],37%
same,"Percentage inhibition of ligand binding, Adrenergic α2B (0.03 μM)",[2]; [5],101% and 103%
same,Ki,[2]; read-out: Ki α2B,0.33 nM
same,"Percentage inhibition of ligand binding, Adrenergic α1B (0.1 μM)",[3]; [6],70% and 75%
same,inhibition at 0.03 µM,"[3]; read-out: Percentage inhibition of ligand binding, Adrenergic α1B (0.03 μM), compound at 0.03 μM, [3H]Prazosin, repeat datapoints each shown",43%
"Cc1ccc2c(c1)c1c(n2CC(O)c2cccnc2)CCNC1 (single isomer, unassigned) [9b, 2-(8-methyl-1,2,3,4-tetrahydro-pyrido[4,3-b]indol-5-yl)-1-pyridin-3-yl-ethanol]","Percentage inhibition of ligand binding, Adrenergic α2A",[1]; [10],10%
same,"Percentage inhibition of ligand binding, Adrenergic α2B",[2]; [11],50%
same,"Percentage inhibition of ligand binding, Adrenergic α1B",[3]; [12],10%
"Cc1ccc2c(c1)c1c(n2CC(C)(O)c2ccc(F)cc2)CCN(C)C1 (single isomer, unassigned) [90a]","Percentage inhibition of ligand binding, Adrenergic α2A",[1]; [10],71%
same,inhibition at 0.03 µM,"[2]; compound at 0.03 μM, [3H]Rauwolscine, repeat assays, each datapoint shown, read-out: Percentage inhibition of ligand binding, Adrenergic α2B",97%
same,"Percentage inhibition of ligand binding, Adrenergic α1B",[3]; [12],74%
"Cc1ccc2c(c1)c1c(n2CC(CC(O)C(C)(C)C)c2ccncc2)CCN(C)C1 (single isomer, unassigned) [II-227b, 6-(2,8-dimethyl-1,2,3,4-tetrahydro-pyrido[4,3-b]indol-5-yl)-2,2-dimethyl-5-pyridin-4-yl-hexan-3-ol]","Percentage inhibition of ligand binding, Adrenergic α2A (0.1 μM)",[1]; [4],6%
same,"Percentage inhibition of ligand binding, Adrenergic α2B (0.03 μM)",[2]; [5],18%
same,"Percentage inhibition of ligand binding, Adrenergic α1B (0.1 μM)",[3]; [6],8%
"CNC(Cn1c2c(c3cc(C)ccc31)CN(C)CC2)c1ccc(F)cc1 (single isomer, unassigned) [II-12a, 2-(2,8-dimethyl-3,4-dihydro-1H-pyrido[4,3-b]indol-5(2H)-yl)-1-(4-fluorophenyl)-N-methyl ethanamine]","Percentage inhibition of ligand binding, Adrenergic α2A",[1]; 0.1 μM compound,25%
same,"Percentage inhibition of ligand binding, Adrenergic α2B",[2]; 0.03 μM compound,89%
same,"Percentage inhibition of ligand binding, Adrenergic α1B",[3]; 0.1 μM compound,26%
"Cc1cc2c3c(n(CC(C)(O)c4cccnc4)c2cc1Cl)CCN(C)C3 (single isomer, unassigned) [II-123b, 1-(7-chloro-2,8-dimethyl-3,4-dihydro-1H-pyrido[4,3-b]indol-5(2H)-yl)-2-(pyridin-3-yl)propan-2-ol]","Percentage inhibition of ligand binding, Adrenergic α2A (0.1 μM)",[1]; [4],75%
same,"Percentage inhibition of ligand binding, Adrenergic α2B (0.03 μM)",[2]; [5],93%
same,"Percentage inhibition of ligand binding, Adrenergic α1B (0.1 μM)",[3]; [6],61%
"Cc1ccc2c(c1)c1c(n2CCc2cncc(F)c2)CCN(C)C1 [compound 117, 5-[2-(5-fluoro-pyridin-3-yl)-ethyl]-2,8-dimethyl-2,3,4,5-tetrahydro-1H-pyrido[4,3-b]indole]",inhibition at 0.1 µM,[1]; [7],18%
same,inhibition at 0.1 µM,"[2]; read-out: Percentage inhibition of ligand binding, Adrenergic α2B (0.1 μM), compound at 0.1 μM, [3H]Rauwolscine, repeat datapoints each shown",68%
same,inhibition at 0.1 µM,[3]; [9],59%
"CN1CCc2c(c3cc(Cl)ccc3n2CC(O)c2cccnc2)C1 (single isomer, unassigned) [7a]","Percentage inhibition of ligand binding, Adrenergic α2A",[1]; [10],1%
same,"Percentage inhibition of ligand binding, Adrenergic α2B",[2]; [11],59%
same,"Percentage inhibition of ligand binding, Adrenergic α1B",[3]; [12],28%
"Cc1cnc2c(c1)c1c(n2CC(C)(O)c2cccnc2)CCN2CCCC12 (single isomer, unassigned) [26c]","Percentage inhibition of ligand binding, Adrenergic α2A",[1]; [10],19%
same,"Percentage inhibition of ligand binding, Adrenergic α2B",[2]; [11],1% and 7%
same,"Percentage inhibition of ligand binding, Adrenergic α1B",[3]; [12],1%
"Cc1ccc2c(c1)c1c(n2CC(O)c2ccc(C#N)nc2)CCN(C)C1 (centres unmarked) [compound 140, 5-[2-(2,8-dimethyl-1,2,3,4-tetrahydro-pyrido[4,3-b]indol-5-yl)-1-hydroxy-ethyl]-pyridine-2-carbonitrile]","Percentage inhibition of ligand binding, Adrenergic α2A (0.1 μM)",[1]; [4],−2%
same,"Percentage inhibition of ligand binding, Adrenergic α2B (0.03 μM)",[2]; [5],49%
same,"Percentage inhibition of ligand binding, Adrenergic α1B (0.1 μM)",[3]; [6],37%
"Cc1ccc(C(C)(O)Cn2c3c(c4cc(Cl)ccc42)CN(C)CC3)cn1 (single isomer, unassigned) [93b]","Percentage inhibition of ligand binding, Adrenergic α2A (0.1 μM)",[1]; [4],−5%
same,"Percentage inhibition of ligand binding, Adrenergic α2B (0.03 μM)",[2]; [5],26%
same,"Percentage inhibition of ligand binding, Adrenergic α1B (0.1 μM)",[3]; [6],1%
"OC(Cn1c2c(c3cc(Cl)ccc31)CNCC2)c1cccnc1 (centres unmarked) [II-89, 2-(8-chloro-1,2,3,4-tetrahydro-pyrido[4,3-b]indol-5-yl)-1-pyridin-3-yl-ethanol]",inhibition at 0.1 µM,"[1]; 0.1 μM compound, read-out: Percentage inhibition of ligand binding, Adrenergic α2A",-5%
same,inhibition at 0.03 µM,"[2]; 0.03 μM compound, read-out: Percentage inhibition of ligand binding, Adrenergic α2B",35%
same,inhibition at 0.1 µM,"[3]; 0.1 μM compound, read-out: Percentage inhibition of ligand binding, Adrenergic α1B",13%
Cc1cnc2c(c1)c1c(n2CC(N)c2ccncc2)CCN(C)C1 (centres unmarked) [compound 156],inhibition at 0.1 µM,[1]; [7],1%
same,inhibition at 0.03 µM,[2]; [8],6%
same,inhibition at 0.1 µM,[3]; [9],21%
"Cc1ccc2c(c1)c1c(n2CC(C)(F)c2cccnc2)CCN(C)C1 (centres unmarked) [II-212, 5-(2-Fluoro-2-pyridin-3-yl-propyl)-2,8-dimethyl-2,3,4,5-tetrahydro-1H-pyrido[4,3-b]indole]",inhibition at 0.1 µM,[1]; [7],19%
same,inhibition at 0.03 µM,[2]; [8],73%
same,inhibition at 0.1 µM,[3]; [9],29%
